This test concerns Phospho-ERK in NCI-H358 cells expressing KRas G12C. The test is described as follows: Cellular inhibition of KRas G12C by Phospho-ERK measurement in NCI-H358 cells. The class given is cell-based. Particulars: Homo sapiens; NCI-H358 cells, 3 hours compound treatment; read-out: IC50 (pERK(Thr202/Tyr204) normalized with GAPDH). How it is done: The cellular inhibition of KRAs G12C by exemplary compounds of the present invention was determined by measuring the amount of a downstream marker of KRas activity, phosphorylated ERK (“Phospho-ERK”).
NCI-H358 cells (ATCC CRL-5807) express KRas G12C and were grown in RPMI medium supplemented with 10% fetal bovine serum, penicillin/streptomycin and 10 mM HEPES. Cells were plated in poly-D-Lysine coated 96-well plates at a concentration of 50,000 cells/well and allowed to attach for 8-12 hours. Diluted compounds were then added at a final concentration of 0.5% DMSO. After 3 hours, the medium was removed, 150 μL of 4% formaldehyde was added and the plates were incubated for 20 minutes. The plates were washed with PBS, and permeabilized using 150 μL of ice cold 100% methanol for 10 minutes. Non-specific antibody binding to the plates was blocked using 100 μL Licor Blocking Buffer (Li-Cor Biotechnology, Lincoln Nebr.) for 1 hour at room temperature. Positive control samples and samples lacking cells were parallel processed with test samples as standards.
The amount Phospho-ERK was determined using an antibody specific for the phosphorylated form of ERK and compared to the amount of GAPDH. Primary antibodies used for detection were added as follows: Phospho-ERK (Cell Signaling cs9101) diluted 1:500 and GAPDH (Millipore MAB374) diluted 1:5000 in Licor block+0.05% Tween 20. The plates were incubated for 2 hours at room temperature. The plates were washed with PBS+0.05% Tween 20.
Secondary antibodies used to visualize primary antibodies were added as follows: Anti-rabbit-680 diluted 1:1000 and Anti-mouse-800 diluted 1:1000 in Licor Block+0.050 Tween 20 and incubated for 1 hour at room temperature. The plates were washed with PBS+0.05% o Tween 20. A100 L aliquot of PBS was added to each well and the plates were read on a LICOR AERIUS plate reader.
The pERK(Thr202/Tyr204) signal was normalized with the GAPDH signal and percent of DMSO control values were calculated. IC50 values were generated using a 4 parameter fit of the dose response curve. Key: “A”≥0.001-≤1 μM; “B”[…] and ND=not determined.

This note sets out measurements from patent US11267812B2 (Mirati Therapeutics, Inc., priority 2016, dated 2022).

With `C=CC(=O)N1CCN(c2nc(OC[C@@H]3C[C@@H](O)CN3C)nc3c2CCN(c2cccc4ccccc24)C3)CC1CC#N` (stereo partly drawn) [Example 218, 2-(1-acryloyl-4-(2-(((2S,4R)-4-hydroxy-1-methylpyrrolidin-2-yl)methoxy)-7-(naphthalen-1-yl)-5,6,7,8-tetrahydropyrido[3,4-d]pyrimidin-4-yl)piperazin-2-yl)acetonitrile], the IC50 fell in the range of 1 to 1000 nM. For the molecule `C=CC(=O)N1CCN(c2nc(OC[C@@H]3CCCN3C)nc3c2CCN(c2cc(F)ccc2OC(F)(F)F)C3)CC1CC#N` (stereo partly drawn) [Example 225, 2-(1-acryloyl-4-(7-(5-fluoro-2-(trifluoromethoxy)phenyl)-2-(((S)-1-methylpyrrolidin-2-yl)methoxy)-5,6,7,8-tetrahydropyrido[3,4-d]pyrimidin-4-yl)piperazin-2-yl)acetonitrile], the IC50 was in the range of 1 to 1000 nM.

Turning to `C=CC(=O)N1CCN(c2nc(OCC3CCN(C4CCCCC4)C3)nc3c2CCN(c2cc(O)cc4ccccc24)C3)CC1` (stereo not drawn) [Example 132, 1-[4-[2-[(1-cyclohexylpyrrolidin-3-yl)methoxy]-7-(3-hydroxy-1-naphthyl)-6,8-dihydro-5H-pyrido[3,4-d]pyrimidin-4-yl]piperazin-1-yl]prop-2-en-1-one], the IC50 fell in the range of 1 to 1000 nM. Then `C/C=C/C(=O)N1CCN(c2nc(OC[C@@H]3CCCN3C)nc3c2CCN(c2cccc4ccccc24)C3)CC1CC#N` (stereo partly drawn) [Example 263, 2-[1-[(E)-but-2-enoyl]-4-[2-[[(2S)-1-methylpyrrolidin-2-yl]methoxy]-7-(1-naphthyl)-6,8-dihydro-5H-pyrido[3,4-d]pyrimidin-4-yl]piperazin-2-yl]acetonitrile], with 1 to 1000 nM; and `C=CC(=O)N1CCN(c2nc(OCCCN3C[C@@H]4C[C@H]3CO4)nc3c2CCN(c2cc(O)cc4ccccc24)C3)CC1CC#N` (stereo partly drawn) [Example 153, 2-[4-[7-(3-hydroxy-1-naphthyl)-2-[3-[(1S,4S)-2-oxa-5-azabicyclo[2.2.1]heptan-5-yl]propoxy]-6,8-dihydro-5H-pyrido[3,4-d]pyrimidin-4-yl]-1-prop-2-enoyl-piperazin-2-yl]acetonitrile], with 1 to 1000 nM; and `C=CC(=O)N1CCN(c2nc(OC[C@H]3CN(C)CCN3)nc3c2CCN(c2cccc4ccccc24)C3)CC1CC#N` (stereo partly drawn) [Example 224, 2-(1-acryloyl-4-(2-(((R)-4-methylpiperazin-2-yl)methoxy)-7-(naphthalen-1-yl)-5,6,7,8-tetrahydropyrido[3,4-d]pyrimidin-4-yl)piperazin-2-yl)acetonitrile], with 1 to 1000 nM. Next, `C=CC(=O)N1CCN(c2nc(OCC(C)(C)N(C)C)nc3c2CCN(c2cccc4ccccc24)C3)CC1CC#N` (stereo not drawn) [Example 269, 2-(1-acryloyl-4-(2-(2-(dimethylamino)-2-methylpropoxy)-7-(naphthalen-1-yl)-5,6,7,8-tetrahydropyrido[3,4-d]pyrimidin-4-yl)piperazin-2-yl)acetonitrile]: 1 to 1000 nM; `C=CC(=O)N1CCN(c2nc(O[C@H](C)CN3CCCCC3)nc3c2CCN(c2cc(O)cc4ccccc24)C3)CC1` [Example 75, (R)-1-(4-(7-(3-hydroxynaphthalen-1-yl)-2-((1-(piperidin-1-yl)propan-2-yl)oxy)-5,6,7,8-tetrahydropyrido[3,4-d]pyrimidin-4-yl)piperazin-1-yl)prop-2-en-1-one]: 1 to 1000 nM. On to `C=CC(=O)N1CCN(c2nc(OC[C@@H]3CCCN3C)nc3c2CCN(c2cnccc2C(F)(F)F)C3)CC1CC#N` (stereo partly drawn) [Example 212, 2-(1-acryloyl-4-(2-(((S)-1-methylpyrrolidin-2-yl)methoxy)-7-(4-(trifluoromethyl)pyridin-3-yl)-5,6,7,8-tetrahydropyrido[3,4-d]pyrimidin-4-yl)piperazin-2-yl)acetonitrile], for which the IC50 was 1 to 1000 nM. For the molecule `C=CC(=O)N1CCN(c2nc(O[C@@H](C)[C@@H]3CCCN3C)nc3c2CCN(c2cc(O)cc4ccccc24)C3)CC1` [Example 130, 1-(4-(7-(3-hydroxynaphthalen-1-yl)-2-((S)-1-((S)-1-methylpyrrolidin-2-yl)ethoxy)-5,6,7,8-tetrahydropyrido[3,4-d]pyrimidin-4-yl)piperazin-1-yl)prop-2-en-1-one], the IC50 was 1 to 1000 nM. In the case of `C=CC(=O)N1CCN(c2nc(OC[C@H]3CCCN3C)nc3c2CCN(c2cccc(F)c2C(F)(F)F)C3)C[C@@H]1CC#N` [Example 274, 2-((S)-1-acryloyl-4-(7-(3-fluoro-2-(trifluoromethyl)phenyl)-2-(((R)-1-methylpyrrolidin-2-yl)methoxy)-5,6,7,8-tetrahydropyrido[3,4-d]pyrimidin-4-yl)piperazin-2-yl)acetonitrile], the IC50 is 1 to 1000 nM. For the molecule `C=CC(=O)N1CCN(c2nc(OC[C@@H]3CCCN3C)nc3c2CCN(c2c(C)ccc4cn[nH]c24)C3)CC1CC#N` (stereo partly drawn) [Example 238, 2-(1-acryloyl-4-(7-(6-methyl-1H-indazol-7-yl)-2-(((S)-1-methylpyrrolidin-2-yl)methoxy)-5,6,7,8-tetrahydropyrido[3,4-d]pyrimidin-4-yl)piperazin-2-yl)acetonitrile], the IC50 was 1 to 1000 nM.

Regarding `C=CC(=O)N1CCN(c2nc(OC[C@@H]3CCCN3CC)nc3c2CCN(c2cc(O)cc4ccccc24)C3)CC1` [Example 197, (S)-1-(4-(2-((1-ethylpyrrolidin-2-yl)methoxy)-7-(3-hydroxynaphthalen-1-yl)-5,6,7,8-tetrahydropyrido[3,4-d]pyrimidin-4-yl)piperazin-1-yl)prop-2-en-1-one], the IC50 was 1 to 1000 nM.

For `CN(C)C/C=C/C(=O)N1CCN(c2nc(OC[C@@H]3CCCN3C)nc3c2CCN(c2cccc4ccccc24)C3)C[C@@H]1CC#N` [Example 235, 2-((S)-1-((E)-4-(dimethylamino)but-2-enoyl)-4-(2-(((S)-1-methylpyrrolidin-2-yl)methoxy)-7-(naphthalen-1-yl)-5,6,7,8-tetrahydropyrido[3,4-d]pyrimidin-4-yl)piperazin-2-yl)acetonitrile], the IC50 is 1 to 1000 nM.

For `C=CC(=O)N1CCN(c2nc(OC[C@@H]3CCCN(C)C3)nc3c2CCN(c2cc(O)cc4ccccc24)C3)CC1` [Example 192, (R)-1-(4-(7-(3-hydroxynaphthalen-1-yl)-2-((1-methylpiperidin-3-yl)methoxy)-5,6,7,8-tetrahydropyrido[3,4-d]pyrimidin-4-yl)piperazin-1-yl)prop-2-en-1-one], the IC50 is 1 to 1000 nM. Next, `C=CC(=O)N1CCN(c2nc(OCCCCN(C)C)nc3c2CCN(c2cc(O)cc4ccccc24)C3)CC1` [Example 40, 1-(4-(2-(4-(dimethylamino)butoxy)-7-(3-hydroxynaphthalen-1-yl)-5,6,7,8-tetrahydropyrido[3,4-d]pyrimidin-4-yl)piperazin-1-yl)prop-2-en-1-one]: 1 to 1000 nM; `C=CC(=O)N1CCN(c2nc(OC[C@@H]3CCCCN3C)nc3c2CCN(c2cc(O)cc4ccccc24)C3)CC1` [Example 196, (S)-1-(4-(7-(3-hydroxynaphthalen-1-yl)-2-((1-methylpiperidin-2-yl)methoxy)-5,6,7,8-tetrahydropyrido[3,4-d]pyrimidin-4-yl)piperazin-1-yl)prop-2-en-1-one]: 1 to 1000 nM; `C=CC(=O)N1CCN(c2nc(OC[C@@H]3COCCN3C)nc3c2CCN(c2cccc4ccccc24)C3)CC1CC#N` (stereo partly drawn) [Example 272, 2-(1-acryloyl-4-(2-(((S)-4-methylmorpholin-3-yl)methoxy)-7-(naphthalen-1-yl)-5,6,7,8-tetrahydropyrido[3,4-d]pyrimidin-4-yl)piperazin-2-yl)acetonitrile]: 1 to 1000 nM. Next, `CN1CCC[C@H]1COc1nc2c(c(N3CCN(C(=O)/C=C/CN4CCCCC4)[C@@H](CC#N)C3)n1)CCN(c1cccc3ccccc13)C2` [Example 236, 2-((S)-4-(2-(((S)-1-methylpyrrolidin-2-yl)methoxy)-7-(naphthalen-1-yl)-5,6,7,8-tetrahydropyrido[3,4-d]pyrimidin-4-yl)-1-(E-4-(piperidin-1-yl)but-2-enoyl)piperazin-2-yl)acetonitrile]: 1 to 1000 nM.

Consider `C=CC(=O)N1CCN(c2nc(O[C@H](C)CN(C)C)nc3c2CCN(c2cc(O)cc4ccccc24)C3)CC1CC#N` (stereo partly drawn) [Example 150, 2-(1-acryloyl-4-(2-(((R)-1-(dimethylamino)propan-2-yl)oxy)-7-(3-hydroxynaphthalen-1-yl)-5,6,7,8-tetrahydropyrido[3,4-d]pyrimidin-4-yl)piperazin-2-yl)acetonitrile], for which the IC50 was in the range of 1 to 1000 nM. Consider `C=CC(=O)N1CCN(c2nc(OC[C@@H]3C[C@H](F)CN3C)nc3c2CCN(c2cccc4ccccc24)C3)CC1CC#N` (stereo partly drawn) [Example 221, 2-(1-acryloyl-4-(2-(((2S,4S)-4-fluoro-1-methylpyrrolidin-2-yl)methoxy)-7-(naphthalen-1-yl)-5,6,7,8-tetrahydropyrido[3,4-d]pyrimidin-4-yl)piperazin-2-yl)acetonitrile], for which the IC50 lay within 1 to 1000 nM.
